{
  "source": "patent US20250179061A1",
  "about": "(SIRONAX LTD., priority 2022, published 2025)",
  "data": [
    {"system": "HT-29 cells", "assay": "HT-29 necroptosis cell viability assay (TNF-α/SMAC mimetic/zVAD-FMK, CellTiter-Glo)", "format": "cell-based", "details": "Homo sapiens, HT-29, HT-29 necroptosis cell viability, IC50 class symbols; read-out: Activity", "in_short": "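HT-29 cells (~5,000/well, overnight) in FBS-free McCoy's 5A with TNF-α 10 ng/ml, SMAC mimetic 6 μM and zVAD-FMK 10 μM plus 10-point 1:3 compound titration, 20 h at 37°C. ATP measured by CellTiter-Glo luminescence; IC50 as geometric mean of duplicates.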", "units": {"IC50": "nM"}, "values": [
      {"smiles": "O=c1n(Cc2c(F)cccc2F)cnn1-c1ccc(Oc2ccnc(N3CCC4(COC4)C3)c2)cc1", "note": "[Example 333, 2-(4-((2-(2-oxa-6-azaspiro[3.4]octan-6-yl)pyridin-4-yl)oxy)phenyl)-4-(2,6-difluorobenzyl)-2,4-dihydro-3H-1,2,4-triazol-3-one]", "IC50": "< 100"},
      {"smiles": "O=c1n(Cc2c(F)cccc2F)cnn1-c1ccc(Oc2ccnc(N3CC4(CCCCO4)C3)c2)cc1", "note": "[Example 334, 2-(4-((2-(5-oxa-2-azaspiro[3.5]nonan-2-yl)pyridin-4-yl)oxy)phenyl)-4-(2,6-difluorobenzyl)-2,4-dihydro-3H-1,2,4-triazol-3-one]", "IC50": "< 100"},
      {"smiles": "O=c1n(Cc2c(F)cccc2F)cnn1-c1ccc(Oc2ccnc(N3CC4(CCCOC4)C3)c2)cc1", "note": "[Example 335, 2-(4-((2-(6-oxa-2-azaspiro[3.5]nonan-2-yl)pyridin-4-yl)oxy)phenyl)-4-(2,6-difluorobenzyl)-2,4-dihydro-3H-1,2,4-triazol-3-one]", "IC50": "< 100"},
      {"smiles": "CCOC1CN(c2cc(Oc3ccc(-n4ncn(Cc5c(F)cccc5F)c4=O)cc3)ccn2)C1", "note": "[Example 336, 4-(2,6-difluorobenzyl)-2-(4-((2-(3-ethoxyazetidin-1-yl)pyridin-4-yl)oxy)phenyl)-2,4-dihydro-3H-1,2,4-triazol-3-one]", "IC50": "< 100"},
      {"smiles": "CC1CCN(c2cc(Oc3ccc(-n4ncn(Cc5c(F)cccc5F)c4=O)cc3)ccn2)C1", "note": "(stereo not shown) [Example 337, 4-(2,6-difluorobenzyl)-2-(4-((2-(3-methylpyrrolidin-1-yl)pyridin-4-yl)oxy)phenyl)-2,4-dihydro-3H-1,2,4-triazol-3-one]", "IC50": "< 100"},
      {"smiles": "N#CC1CN(c2cc(Oc3ccc(-n4ncn(Cc5c(F)cccc5F)c4=O)cc3)ccn2)C1", "note": "[Example 338, 1-(4-(4-(4-(2,6-difluorobenzyl)-5-oxo-4,5-dihydro-1H-1,2,4-triazol-1-yl)phenoxy)pyridin-2-yl)azetidine-3-carbonitrile]", "IC50": "100 to 1000"},
      {"smiles": "O=c1n(Cc2c(F)cccc2F)cnn1-c1ccc(Oc2ccnc(N3CC4(CCOCC4)C3)c2)cc1", "note": "[Example 339, 2-(4-((2-(7-oxa-2-azaspiro[3.5]nonan-2-yl)pyridin-4-yl)oxy)phenyl)-4-(2,6-difluorobenzyl)-2,4-dihydro-3H-1,2,4-triazol-3-one]", "IC50": "< 100"},
      {"smiles": "O=c1n(Cc2c(F)cccc2F)cnn1-c1ccc(Oc2ccnc(N3CCC4(CCOCC4)C3)c2)cc1", "note": "[Example 340, 2-(4-((2-(8-oxa-2-azaspiro[4.5]decan-2-yl)pyridin-4-yl)oxy)phenyl)-4-(2,6-difluorobenzyl)-2,4-dihydro-3H-1,2,4-triazol-3-one]", "IC50": "< 100"},
      {"smiles": "O=c1n(Cc2c(F)cccc2F)cnn1-c1ccc(Oc2ccnc(NCC3COC3)c2)cc1", "note": "[Example 341, 4-(2,6-difluorobenzyl)-2-(4-((2-((oxetan-3-ylmethyl)amino)pyridin-4-yl)oxy)phenyl)-2,4-dihydro-3H-1,2,4-triazol-3-one]", "IC50": "1000 to 10000"},
      {"smiles": "O=c1n(Cc2c(F)cccc2F)cnn1-c1ccc(Oc2ccnc(NCC3CCC3)c2)cc1", "note": "[Example 342, 2-(4-((2-((cyclobutylmethyl)amino)pyridin-4-yl)oxy)phenyl)-4-(2,6-difluorobenzyl)-2,4-dihydro-3H-1,2,4-triazol-3-one]", "IC50": "100 to 1000"},
      {"smiles": "O=c1n(Cc2c(F)cccc2F)cnn1-c1ccc(Oc2ccnc(NC3COC3)c2)cc1", "note": "[Example 343, 4-(2,6-difluorobenzyl)-2-(4-((2-(oxetan-3-ylamino)pyridin-4-yl)oxy)phenyl)-2,4-dihydro-3H-1,2,4-triazol-3-one]", "IC50": "1000 to 10000"},
      {"smiles": "O=c1n(Cc2c(F)cccc2F)cnn1-c1ccc(Oc2ccnc(NC3CCC3)c2)cc1", "note": "[Example 344, 2-(4-((2-(cyclobutylamino)pyridin-4-yl)oxy)phenyl)-4-(2,6-difluorobenzyl)-2,4-dihydro-3H-1,2,4-triazol-3-one]", "IC50": "100 to 1000"},
      {"smiles": "CC(C)Nc1cc(Oc2ccc(-n3ncn(Cc4c(F)cccc4F)c3=O)cc2)ccn1", "note": "[Example 345, 4-(2,6-difluorobenzyl)-2-(4-((2-(isopropylamino)pyridin-4-yl)oxy)phenyl)-2,4-dihydro-3H-1,2,4-triazol-3-one]", "IC50": "100 to 1000"},
      {"smiles": "CCNc1cc(Oc2ccc(-n3ncn(Cc4c(F)cccc4F)c3=O)cc2)ccn1", "note": "[Example 346, 4-(2,6-difluorobenzyl)-2-(4-((2-(ethylamino)pyridin-4-yl)oxy)phenyl)-2,4-dihydro-3H-1,2,4-triazol-3-one]", "IC50": "100 to 1000"},
      {"smiles": "O=c1n(Cc2c(F)cccc2F)cnn1-c1ccc(Oc2ccnc(OCC3CC3)c2)cc1", "note": "[Example 347, 2-(4-((2-(cyclopropylmethoxy)pyridin-4-yl)oxy)phenyl)-4-(2,6-difluorobenzyl)-2,4-dihydro-3H-1,2,4-triazol-3-one]", "IC50": "< 100"},
      {"smiles": "C[C@@H](Nc1cc(Oc2ccc(-n3ncn(Cc4c(F)cccc4F)c3=O)cc2)ccn1)C1CCC1", "note": "[Example 348, (R)-2-(4-((2-((1-cyclobutylethyl)amino)pyridin-4-yl)oxy)phenyl)-4-(2,6-difluorobenzyl)-2,4-dihydro-3H-1,2,4-triazol-3-one]", "IC50": "100 to 1000"},
      {"smiles": "C[C@H](Nc1cc(Oc2ccc(-n3ncn(Cc4c(F)cccc4F)c3=O)cc2)ccn1)C1CCC1", "note": "[Example 349, (S)-2-(4-((2-((1-cyclobutylethyl)amino)pyridin-4-yl)oxy)phenyl)-4-(2,6-difluorobenzyl)-2,4-dihydro-3H-1,2,4-triazol-3-one]", "IC50": "100 to 1000"},
      {"smiles": "O=c1n(Cc2c(F)cccc2F)cnn1-c1ccc(S(=O)(=O)c2ccnc(N3CCC3)c2)cc1", "note": "[Example 350, 2-(4-((2-(azetidin-1-yl)pyridin-4-yl)sulfonyl)phenyl)-4-(2,6-difluorobenzyl)-2,4-dihydro-3H-1,2,4-triazol-3-one]", "IC50": "< 100"},
      {"smiles": "N#CC1CC(Nc2cc(Oc3ccc(-n4ncn(Cc5c(F)cccc5F)c4=O)cc3)ccn2)C1", "note": "(stereo not shown) [Example 351, 3-((4-(4-(4-(2,6-difluorobenzyl)-5-oxo-4,5-dihydro-1H-1,2,4-triazol-1-yl)phenoxy)pyridin-2-yl)amino)cyclobutane-1-carbonitrile]", "IC50": "100 to 1000"},
      {"smiles": "CN(c1cc(Oc2ccc(-n3ncn(Cc4c(F)cccc4F)c3=O)cc2)ccn1)C1CCC1", "note": "[Example 352, 2-(4-((2-(cyclobutyl(methyl)amino)pyridin-4-yl)oxy)phenyl)-4-(2,6-difluorobenzyl)-2,4-dihydro-3H-1,2,4-triazol-3-one]", "IC50": "100 to 1000"},
      {"smiles": "CCN(C)c1cc(Oc2ccc(-n3ncn(Cc4c(F)cccc4F)c3=O)cc2)ccn1", "note": "[Example 353, 4-(2,6-difluorobenzyl)-2-(4-((2-(ethyl(methyl)amino)pyridin-4-yl)oxy)phenyl)-2,4-dihydro-3H-1,2,4-triazol-3-one]", "IC50": "100 to 1000"},
      {"smiles": "NC12CC(Nc3cc(Oc4ccc(-n5ncn(Cc6c(F)cccc6F)c5=O)cc4)ccn3)(C1)C2", "note": "[Example 354, 2-(4-((2-((3-aminobicyclo[1.1.1]pentan-1-yl)amino)pyridin-4-yl)oxy)phenyl)-4-(2,6-difluorobenzyl)-2,4-dihydro-3H-1,2,4-triazol-3-one]", "IC50": "100 to 1000"},
      {"smiles": "CCOC1CN(c2nccc(Oc3ccc(-n4ncn(Cc5c(F)cccc5F)c4=O)cc3)c2F)C1", "note": "[Example 355, 4-(2,6-difluorobenzyl)-2-(4-((2-(3-ethoxyazetidin-1-yl)-3-fluoropyridin-4-yl)oxy)phenyl)-2,4-dihydro-3H-1,2,4-triazol-3-one]", "IC50": "< 100"},
      {"smiles": "CC1(C#N)CCN(c2nccc(Oc3ccc(-n4ncn(Cc5c(F)cccc5F)c4=O)cc3)c2F)C1", "note": "(stereo not shown) [Example 356, 1-(4-(4-(4-(2,6-difluorobenzyl)-5-oxo-4,5-dihydro-1H-1,2,4-triazol-1-yl)phenoxy)-3-fluoropyridin-2-yl)-3-methylpyrrolidine-3-carbonitrile]", "IC50": "< 100"},
      {"smiles": "CC1C(C#N)CN1c1nccc(Oc2ccc(-n3ncn(Cc4c(F)cccc4F)c3=O)cc2)c1F", "note": "(stereo not shown) [Example 357, 1-(4-(4-(4-(2,6-difluorobenzyl)-5-oxo-4,5-dihydro-1H-1,2,4-triazol-1-yl)phenoxy)-3-fluoropyridin-2-yl)-2-methylazetidine-3-carbonitrile]", "IC50": "< 100"},
      {"smiles": "COC1(C#N)CN(c2nccc(Oc3ccc(-n4ncn(Cc5c(F)cccc5F)c4=O)cc3)c2F)C1", "note": "[Example 358, 1-(4-(4-(4-(2,6-difluorobenzyl)-5-oxo-4,5-dihydro-1H-1,2,4-triazol-1-yl)phenoxy)-3-fluoropyridin-2-yl)-3-methoxyazetidine-3-carbonitrile]", "IC50": "< 100"},
      {"smiles": "COC1(C#N)CN(c2ccnc(Cl)c2Oc2ccc(-n3ncn(Cc4c(F)cccc4F)c3=O)cc2)C1", "note": "[Example 359, 1-(2-chloro-3-(4-(4-(2,6-difluorobenzyl)-5-oxo-4,5-dihydro-1H-1,2,4-triazol-1-yl)phenoxy)pyridin-4-yl)-3-methoxyazetidine-3-carbonitrile]", "IC50": "100 to 1000"},
      {"smiles": "O=c1n(Cc2c(F)cccc2F)cnn1-c1ccc(Oc2ccnc(NC(C3CC3)C(F)(F)F)c2F)cc1", "note": "(stereo not shown) [Example 360, 2-(4-((2-((1-cyclopropyl-2,2,2-trifluoroethyl)amino)-3-fluoropyridin-4-yl)oxy)phenyl)-4-(2,6-difluorobenzyl)-2,4-dihydro-3H-1,2,4-triazol-3-one]", "IC50": "1000 to 10000"},
      {"smiles": "N#CC12CC(Nc3nccc(Oc4ccc(-n5ncn(Cc6c(F)cccc6F)c5=O)cc4)c3F)(C1)C2", "note": "[Example 361, 3-((4-(4-(4-(2,6-difluorobenzyl)-5-oxo-4,5-dihydro-1H-1,2,4-triazol-1-yl)phenoxy)-3-fluoropyridin-2-yl)amino)bicyclo[1.1.1]pentane-1-carbonitrile]", "IC50": "100 to 1000"},
      {"smiles": "O=c1n(Cc2c(F)cccc2F)cnn1-c1ccc(Oc2ccnc(NC3(C(F)(F)F)CC3)c2F)cc1", "note": "[Example 362, 4-(2,6-difluorobenzyl)-2-(4-((3-fluoro-2-((1-(trifluoromethyl)cyclopropyl)amino)pyridin-4-yl)oxy)phenyl)-2,4-dihydro-3H-1,2,4-triazol-3-one]", "IC50": "1000 to 10000"},
      {"smiles": "CCOC1CN(c2nccc(Oc3ccc(-n4ncn(Cc5c(F)cccc5F)c4=O)cc3F)c2F)C1", "note": "[Example 363, 4-(2,6-difluorobenzyl)-2-(4-((2-(3-ethoxyazetidin-1-yl)-3-fluoropyridin-4-yl)oxy)-3-fluorophenyl)-2,4-dihydro-3H-1,2,4-triazol-3-one]", "IC50": "< 100"}
    ]}
  ]
}
